Data as given in paper PMC10364322, “Evaluation of chronic drug-induced electrophysiological and cytotoxic effects using human-induced pluripotent stem cell-derived cardiomyocytes (hiPSC-CMs)” (Frontiers in Pharmacology, 2023).
Like-named read-outs stand apart in the source and are kept apart here.

Test system: hiPSC-CMs (iCell-Cardiomyocytes^2)
Summary of the method: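 Monolayers of hiPSC-CMs on fibronectin-coated MEA plates, 50 K/well, kept at 37°C, 5% CO2; compounds added in 0.1% final DMSO after 5-min baseline. Field potential and impedance parameters expressed as mean ± SD percent change from baseline; arrhythmic events noted; cytotoxicity fluorescence normalized to DMSO, Kruskal-Wallis.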

CC(C)(Sc1cc(C(C)(C)C)c(O)c(C(C)(C)C)c1)Sc1cc(C(C)(C)C)c(O)c(C(C)(C)C)c1 [Probucol]
BR (beating rate), % change from baseline (3 µM, 72h): 6±4% | Beating below threshold, number of observations/total well numbers (3 µM, 72h): 0/5 | Cessation of beating, number of observations/total well numbers (3 µM, 72h): 0/5 | EAD, number of observations/total well numbers (3 µM, 72h): 0/5 | FPD (field-potential duration), % change from baseline (3 µM, 72h): 1.7±4.6% | FPDc (field-potential duration corrected by beat-rate), % change from baseline (3 µM, 72h): 3.6±3.3% | Flat T-wave-like, number of observations/total well numbers (3 µM, 72h): 0/5 | BR (beating rate), % change from baseline (3 µM, 96h): 14±5 % | Beating below threshold, number of observations/total well numbers (3 µM, 96h): 0/5 | Cessation of beating, number of observations/total well numbers (3 µM, 96h): 0/5 | EAD, number of observations/total well numbers (3 µM, 96h): 0/5 | FPD (field-potential duration), % change from baseline (3 µM, 96h): -4.1±6.5% | FPDc (field-potential duration corrected by beat-rate), % change from baseline (3 µM, 96h): 0.1±7% | Flat T-wave-like, number of observations/total well numbers (3 µM, 96h): 0/5 | BR (beating rate), % change from baseline (3 µM, 2h): 2±4% | Beating below threshold, number of observations/total well numbers (3 µM, 2h): 0/5 | Cessation of beating, number of observations/total well numbers (3 µM, 2h): 0/5 | EAD, number of observations/total well numbers (3 µM, 2h): 0/5 | FPD (field-potential duration), % change from baseline (3 µM, 2h): 3.7±3.5% | FPDc (field-potential duration corrected by beat-rate), % change from baseline (3 µM, 2h): 4.4±2.3% | Flat T-wave-like, number of observations/total well numbers (3 µM, 2h): 0/5 | BR (beating rate), % change from baseline (3 µM, 24h): 7±0% | Beating below threshold, number of observations/total well numbers (3 µM, 24h): 0/5 | Cessation of beating, number of observations/total well numbers (3 µM, 24h): 0/5 | EAD, number of observations/total well numbers (3 µM, 24h): 0/5 | FPD (field-potential duration), % change from baseline (3 µM, 24h): 8.9±1.5% | FPDc (field-potential duration corrected by beat-rate), % change from baseline (3 µM, 24h): 11.3±1.4% | Flat T-wave-like, number of observations/total well numbers (3 µM, 24h): 0/5 | BR (beating rate), % change from baseline (3 µM, 48h): 7±2% | Beating below threshold, number of observations/total well numbers (3 µM, 48h): 0/5 | Cessation of beating, number of observations/total well numbers (3 µM, 48h): 0/5 | EAD, number of observations/total well numbers (3 µM, 48h): 0/5 | FPD (field-potential duration), % change from baseline (3 µM, 48h): 2.8±2.5% | FPDc (field-potential duration corrected by beat-rate), % change from baseline (3 µM, 48h): 4.9±2.3% | Flat T-wave-like, number of observations/total well numbers (3 µM, 48h): 0/5 | BR (beating rate), % change from baseline (10 µM, 2h): 1±2% | Beating below threshold, number of observations/total well numbers (10 µM, 2h): 0/5 | Cessation of beating, number of observations/total well numbers (10 µM, 2h): 0/5 | EAD, number of observations/total well numbers (10 µM, 2h): 0/5 | FPD (field-potential duration), % change from baseline (10 µM, 2h): 5.5±2.1% | FPDc (field-potential duration corrected by beat-rate), % change from baseline (10 µM, 2h): 6±2.3% | Flat T-wave-like, number of observations/total well numbers (10 µM, 2h): 0/5 | BR (beating rate), % change from baseline (10 µM, 24h): 10±3% | Beating below threshold, number of observations/total well numbers (10 µM, 24h): 0/5 | Cessation of beating, number of observations/total well numbers (10 µM, 24h): 0/5 | EAD, number of observations/total well numbers (10 µM, 24h): 0/5 | FPD (field-potential duration), % change from baseline (10 µM, 24h): 11.3±10% | FPDc (field-potential duration corrected by beat-rate), % change from baseline (10 µM, 24h): 15.1±11% | Flat T-wave-like, number of observations/total well numbers (10 µM, 24h): 0/5 | BR (beating rate), % change from baseline (10 µM, 48h): 17±3% | Beating below threshold, number of observations/total well numbers (10 µM, 48h): 0/5 | Cessation of beating, number of observations/total well numbers (10 µM, 48h): 0/5 | EAD, number of observations/total well numbers (10 µM, 48h): 0/5 | FPD (field-potential duration), % change from baseline (10 µM, 48h): -0.8±13.7% | FPDc (field-potential duration corrected by beat-rate), % change from baseline (10 µM, 48h): 4.7±14.8% | Flat T-wave-like, number of observations/total well numbers (10 µM, 48h): 1/5 | BR (beating rate), % change from baseline (10 µM, 72h): 26±7 % | Beating below threshold, number of observations/total well numbers (10 µM, 72h): 0/5 | Cessation of beating, number of observations/total well numbers (10 µM, 72h): 0/5 | EAD, number of observations/total well numbers (10 µM, 72h): 0/5 | FPD (field-potential duration), % change from baseline (10 µM, 72h): -10.2±17% | FPDc (field-potential duration corrected by beat-rate), % change from baseline (10 µM, 72h): -2.8±19.3% | Flat T-wave-like, number of observations/total well numbers (10 µM, 72h): 1/5 | BR (beating rate), % change from baseline (10 µM, 96h): 48±6 % | Beating below threshold, number of observations/total well numbers (10 µM, 96h): 0/5 | Cessation of beating, number of observations/total well numbers (10 µM, 96h): 0/5 | EAD, number of observations/total well numbers (10 µM, 96h): 0/5 | FPD (field-potential duration), % change from baseline (10 µM, 96h): -14.5±9.4% | FPDc (field-potential duration corrected by beat-rate), % change from baseline (10 µM, 96h): -2.5±12.4% | Flat T-wave-like, number of observations/total well numbers (10 µM, 96h): 2/5 | prolongation of FPD / FPDc (all concentrations tested): did not induce a statistically significant prolongation of the FPD
